The results in this text go back to ChEMBL document CHEMBL1127283, “Structure of maesaquinone” (Bioorg Med Chem Lett, 1994).

≈ marks a conversion by molar mass, not a printed value.

One test has as its system BT-20. In words: Compound was tested for its cytotoxicity against BT-20 breast carcinoma cells. Particulars: Homo sapiens. It counts as functional, cell-based.
Test [1] concerns HeLa. In words: Compound was tested for its cytotoxicity against HeLa epithelioid cervix carcinoma cells. It counts as functional, cell-based. The note with it: Homo sapiens.
For test [2], the system named is HeLa. In words: Compound was tested for its cytotoxicity against HeLa epithelioid cervix carcinoma cells. It is filed as functional, cell-based. The note with it: Homo sapiens.
The target in test [3] is T1, Polyunsaturated fatty acid 5-lipoxygenase (Homo sapiens) (UniProt P09917).
T1 sequence (whole entry): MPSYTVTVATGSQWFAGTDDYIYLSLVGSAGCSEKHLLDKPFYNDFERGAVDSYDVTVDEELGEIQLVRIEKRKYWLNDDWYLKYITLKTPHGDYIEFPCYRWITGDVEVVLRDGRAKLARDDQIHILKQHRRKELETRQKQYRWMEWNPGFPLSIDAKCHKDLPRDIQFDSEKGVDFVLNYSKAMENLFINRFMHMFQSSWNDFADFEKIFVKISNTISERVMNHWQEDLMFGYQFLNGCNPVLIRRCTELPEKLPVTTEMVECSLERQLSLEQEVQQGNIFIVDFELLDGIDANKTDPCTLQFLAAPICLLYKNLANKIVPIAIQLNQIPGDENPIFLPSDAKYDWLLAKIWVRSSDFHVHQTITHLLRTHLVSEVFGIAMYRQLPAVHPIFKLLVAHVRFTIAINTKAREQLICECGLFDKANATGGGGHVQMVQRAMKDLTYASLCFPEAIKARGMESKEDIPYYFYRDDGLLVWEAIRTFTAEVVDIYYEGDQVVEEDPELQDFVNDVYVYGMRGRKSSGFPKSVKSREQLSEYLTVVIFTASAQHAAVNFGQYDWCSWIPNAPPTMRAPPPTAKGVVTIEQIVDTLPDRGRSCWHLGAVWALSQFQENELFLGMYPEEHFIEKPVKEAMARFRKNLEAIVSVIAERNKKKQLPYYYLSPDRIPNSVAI
In words: Compound was tested for its inhibitory activity against 5-lipoxygenase.

One may read the IC50 as the concentration that inhibits the measured activity by half. A lower IC50 goes with greater potency in that assay. As for `CCCC/C=C\CCCCCCCCCC1=C(O)C(O)=C(C)C(=O)C1=O`, the IC50 is 1.58 µg/mL (≈ 4.36 µM) in the test on BT-20 and 2.05 µg/mL (≈ 5.66 µM) in the test on HeLa [1].

The IC90 is the concentration at which the effect reaches the 90% level. Turning to `CCCC/C=C\CCCCCCCCCC1=C(O)C(OC)=CC(=O)C1=O`, the IC50 in the test on BT-20 came to 1.8 µg/mL (≈ 4.97 µM); in the test with HeLa [2], 1.25 µg/mL (≈ 3.45 µM). This molecule also had a concentration for an effect of 90% (IC90) in test [3] of 3 µM.
